Assay results published in PMC10849753, “Antiproliferative activity of platinum(II) and copper(II) complexes containing novel biquinoxaline ligands” (Metallomics: Integrated Biometal Science, 2024).

Tested on: U87 cells
Assay: Matrigel invasion analysis
Assay type: cell-based, human
Conditions: U87, 6.25 and 12.5 μM, 24 h, vs negative control
Protocol: The analysis was completed with U87 and HeLa cell lines to assess the metastatic potential of tumor cells using transwell inserts with an 8 μm pore size polycarbonate membrane (Corning Costar, Cambridge, MA, USA) coated with 1/5 of Matrigel (Beckton Dickinson, Bedford, MA, USA) and air-dried at room temperature. After seeding the U87 and HeLa cell lines (3 × 10^5cells/insert), the complex concentrations were selected as 6.25 or 12.5 μM and incubated at 37°C in a humidified incubator with 5% CO2 for 24 h. The cell monolayers in the transwell inserts were fixed with ice-cold methanol and stained with 0.05% crystal violet for the analysis. The invasion of the cells to the basolateral side of the inserts was investigated using a light microscope with 40× magnification.

With `[Cl][Cu][Cl].c1ccc(-c2nc3ccc(-c4ccc5nc(-c6ccccn6)c(-c6ccccn6)nc5c4)cc3nc2-c2ccccn2)nc1` [Cu(tpbq)Cl2] the anti-invasive effect was “did not have any anti-invasive effect”.
